For 27 compounds, inhibition results are on record in US9951040B2, “1,3,5 -triazine based PI3K inhibitors as anticancer agents and a process for the preparation thereof” (Council of Scientific and Industrial Research, priority 2014, dated 2018).

Where two headings read alike, the source gives them in different places.

This assay concerns the target PI3K alpha (Homo sapiens, UniProt P42336). The experiment in a line: PI3K-α assay (ADP-Glo enzyme inhibition). The class given is biochemical. As to conditions: at 500 nm. Here is the method: Compounds were evaluated for their ability to inhibit class I PI3-kinase enzyme alpha as given below. PI3K-α Assay: PI3K alpha (diluted in 12.5 mM Glycine-NaOH (pH 8.5), 50 mM KCl, 2.5 mM MgCl2, 1 mM DTT, 0.05% CHAPS) is assayed in total volume of 20 ul containing 12.5 mM glycine-NaOH (pH 8.5), 50 mM KCl, 2.5 mM MgCl2, 1 mM DTT, 0.05% CHAPS, 0.01 mM ATP and 0.05 mM diC8 PIP2. The enzyme is assayed for 80 min after which 20 ul of ADP-Glo reagent is added. After a further incubation of 40 min, 40 ul of Kinase Detection Buffer is added. The assays are incubated for 40 min and then read on PerkinElmer Envision for 1 sec/well.
For orientation: ADP-Glo first removes unused ATP, then detects ADP through luciferase.

Setting [1] is: read-out: In vitro PI3K α % of inhibition.
Setting [2] is: read-out: inhibition against PI3K alpha.

Chain of PI3K alpha (P42336 whole entry, species assumed): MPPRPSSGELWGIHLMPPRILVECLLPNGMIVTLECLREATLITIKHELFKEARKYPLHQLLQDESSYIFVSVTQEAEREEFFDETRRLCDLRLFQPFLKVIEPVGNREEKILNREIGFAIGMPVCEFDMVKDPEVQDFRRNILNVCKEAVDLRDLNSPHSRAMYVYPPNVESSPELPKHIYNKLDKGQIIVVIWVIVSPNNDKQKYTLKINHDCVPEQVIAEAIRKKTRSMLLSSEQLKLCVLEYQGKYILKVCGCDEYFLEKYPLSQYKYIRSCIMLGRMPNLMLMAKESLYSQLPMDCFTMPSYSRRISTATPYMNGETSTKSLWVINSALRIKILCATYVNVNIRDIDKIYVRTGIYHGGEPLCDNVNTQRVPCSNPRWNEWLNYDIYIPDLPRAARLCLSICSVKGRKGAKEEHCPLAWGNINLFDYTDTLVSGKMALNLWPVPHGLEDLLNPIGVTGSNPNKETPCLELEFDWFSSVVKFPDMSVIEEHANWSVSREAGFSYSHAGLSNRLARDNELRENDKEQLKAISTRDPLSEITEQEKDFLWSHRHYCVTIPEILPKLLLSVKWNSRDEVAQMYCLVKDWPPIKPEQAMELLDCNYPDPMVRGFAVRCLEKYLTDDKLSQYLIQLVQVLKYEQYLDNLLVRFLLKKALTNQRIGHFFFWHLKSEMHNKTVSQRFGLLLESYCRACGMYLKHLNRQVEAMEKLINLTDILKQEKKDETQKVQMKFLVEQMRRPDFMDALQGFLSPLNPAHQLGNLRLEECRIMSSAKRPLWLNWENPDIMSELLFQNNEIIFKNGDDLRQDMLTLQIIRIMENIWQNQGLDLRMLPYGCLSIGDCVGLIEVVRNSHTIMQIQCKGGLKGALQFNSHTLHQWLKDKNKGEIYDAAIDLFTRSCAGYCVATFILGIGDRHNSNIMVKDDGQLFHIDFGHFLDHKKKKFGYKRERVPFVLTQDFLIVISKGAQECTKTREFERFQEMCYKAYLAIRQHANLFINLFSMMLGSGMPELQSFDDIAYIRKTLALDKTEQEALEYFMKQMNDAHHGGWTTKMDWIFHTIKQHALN
Chain of PI3K alpha (P27986 whole entry partner, species assumed): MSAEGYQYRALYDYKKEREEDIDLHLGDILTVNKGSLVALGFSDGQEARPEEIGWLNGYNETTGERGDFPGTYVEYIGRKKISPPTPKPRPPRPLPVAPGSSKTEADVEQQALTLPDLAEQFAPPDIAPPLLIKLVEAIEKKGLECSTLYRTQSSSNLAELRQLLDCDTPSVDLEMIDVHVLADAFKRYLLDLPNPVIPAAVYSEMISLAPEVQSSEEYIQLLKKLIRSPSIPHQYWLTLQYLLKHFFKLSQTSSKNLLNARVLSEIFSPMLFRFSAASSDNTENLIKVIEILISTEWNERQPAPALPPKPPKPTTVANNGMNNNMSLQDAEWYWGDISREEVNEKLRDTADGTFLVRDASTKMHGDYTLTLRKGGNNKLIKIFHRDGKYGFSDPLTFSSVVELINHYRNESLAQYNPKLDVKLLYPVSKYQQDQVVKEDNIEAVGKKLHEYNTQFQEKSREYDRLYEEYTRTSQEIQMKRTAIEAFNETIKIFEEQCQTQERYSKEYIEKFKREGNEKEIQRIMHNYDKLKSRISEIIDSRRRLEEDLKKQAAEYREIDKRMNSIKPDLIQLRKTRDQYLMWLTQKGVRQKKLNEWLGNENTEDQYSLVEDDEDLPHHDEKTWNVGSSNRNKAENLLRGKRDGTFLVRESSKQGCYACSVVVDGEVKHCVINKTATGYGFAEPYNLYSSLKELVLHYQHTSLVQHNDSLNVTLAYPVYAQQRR

On to `COc1ccc(NC2CCN(c3nc(N4CCOCC4)nc(-n4c(C(F)F)cc5ccccc54)n3)CC2)cc1` [1B47, 1-(4-(2-(difluoromethyl)-1H-indol-1-yl)-6-morpholino-1,3,5-triazin-2-yl)-N-(4-methoxyphenyl)piperidin-4-amine], for which the inhibition at 0.5 µM under setting [1] is more than 70% and the inhibition at 0.5 µM under setting [2] was more than 70%. As for `Fc1ccc(NC2CCN(c3nc(N4CCOCC4)nc(-n4c(C(F)F)cc5ccccc54)n3)CC2)cc1` [1B46, 1-(4-(2-(difluoromethyl)-1H-indol-1-yl)-6-morpholino-1,3,5-triazin-2-yl)-N-(4-fluorophenyl)piperidin-4-amine], the inhibition at 0.5 µM under setting [1] was 50 to 70%. For `FC(F)c1nc2ccccc2n1-c1nc(N2CCOCC2)nc(N2CCC(Nc3ccccc3C(F)(F)F)CC2)n1` [1B29, 1-(4-(2-(difluoromethyl)-1H-benzo[d]imidazol-1-yl)-6-morpholino-1,3,5-triazin-2-yl)-N-(2-(trifluoromethyl)phenyl)piperidin-4-amine], under setting [1], the inhibition at 0.5 µM is 50 to 70%.

`FC(F)c1cc2ccccc2n1-c1nc(N2CCOCC2)nc(N2CCC(Nc3ccc(C(F)(F)F)cc3)CC2)n1` [1B49, 1-(4-(2-(difluoromethyl)-1H-indol-1-yl)-6-morpholino-1,3,5-triazin-2-yl)-N-(4-(trifluoromethyl)phenyl)piperidin-4-amine]: the inhibition at 0.5 µM under setting [1] was more than 70% and the inhibition at 0.5 µM under setting [2] is more than 70%. Consider `Fc1cccc(OC2CCN(c3nc(N4CCOCC4)nc(-n4c(C(F)F)nc5ccccc54)n3)CC2)c1` [1B8, 4-(4-(2-(difluoromethyl)-1H-benzo[d]imidazol-1-yl)-6-(4-(3-fluorophenoxy)piperidin-1-yl)-1,3,5-triazin-2-yl)morpholine], for which the inhibition at 0.5 µM under setting [1] was more than 70% and the inhibition at 0.5 µM under setting [2] is more than 70%. As to `Cc1ccc(OC2CCN(c3nc(N(C)C)nc(N4CCOCC4)n3)CC2)cc1` [1A16, N,N-dimethyl-4-morpholino-6-(4-(p-tolyloxy)piperidin-1-yl)-1,3,5-triazin-2-amine], under setting [1], the inhibition at 0.5 µM is 50 to 70%. Regarding `Fc1ccc(N(c2ccc(Br)cc2)C2CCN(c3nc(N4CCOCC4)nc(-n4c(C(F)F)nc5ccccc54)n3)CC2)cc1` [1B42, N-(4-bromophenyl)-1-(4-(2-(difluoromethyl)-1H-benzo[d]imidazol-1-yl)-6-morpholino-1,3,5-triazin-2-yl)-N-(4-fluorophenyl)piperidin-4-amine], the inhibition at 0.5 µM runs as follows: under setting [1], more than 70%; under setting [2], more than 70%.

For the compound `O=C(N(c1ccc(F)cc1)c1nc(N2CCOCC2)nc(N2CCC(Oc3ccc(F)cc3)CC2)n1)C(F)(F)F` [1A6, 2,2,2-trifluoro-N-(4-(4-(4-fluorophenoxy)piperidin-1-yl)-6-morpholino-1,3,5-triazin-2-yl)-N-(4-fluorophenyl)acetamide], the inhibition at 0.5 µM under setting [1] is more than 70% and the inhibition at 0.5 µM under setting [2] is more than 70%. On to `FC(F)(F)Oc1ccc(NC2CCN(c3nc(N4CCOCC4)nc(-n4cnc5ccccc54)n3)CC2)cc1` [1B36, 1-(4-(1H-benzo[d]imidazol-1-yl)-6-morpholino-1,3,5-triazin-2-yl)-N-(4-(trifluoromethoxy)phenyl)piperidin-4-amine], for which the inhibition at 0.5 µM under setting [1] fell in the range of 50 to 70%. For the compound `O=C(N(C(=O)C(F)(F)F)c1nc(N2CCOCC2)nc(N2CCC(Oc3ccccc3F)CC2)n1)C(F)(F)F` [1A14, 2,2,2-trifluoro-N-(4-(4-(2-fluorophenoxy)piperidin-1-yl)-6-morpholino-1,3,5-triazin-2-yl)-N-(2,2,2-trifluoroacetyl)acetamide], the inhibition at 0.5 µM is more than 70% under setting [1] and more than 70% under setting [2]. In the case of `Fc1ccc(N(c2ccncc2C(F)(F)F)C2CCN(c3nc(N4CCOCC4)nc(-n4c(C(F)F)nc5ccccc54)n3)CC2)cc1` [1B45, N-(1-(4-(2-(difluoromethyl)-1H-benzo[d]imidazol-1-yl)-6-morpholino-1,3,5-triazin-2-yl)piperidin-4-yl)-N-(4-fluorophenyl)-3-(trifluoromethyl)pyridin-4-amine], the inhibition at 0.5 µM under setting [1] fell in the range of 50 to 70%. Take `O=C(N(c1ccccc1)c1nc(N2CCOCC2)nc(N2CCC(Oc3ccccc3C(F)(F)F)CC2)n1)C(F)(F)F` [1A10, 2,2,2-trifluoro-N-(4-morpholino-6-(4-(2-(trifluoromethyl)phenoxy)piperidin-1-yl)-1,3,5-triazin-2-yl)-N-phenylacetamide]: the inhibition at 0.5 µM by setting is: under setting [1], more than 70%; under setting [2], more than 70%. With `Fc1ccc(NC2CCN(c3nc(N4CCOCC4)nc(-n4c(C(F)F)nc5ccccc54)n3)CC2)cc1` [1B21, 1-(4-(2-(difluoromethyl)-1H-benzo[d]imidazol-1-yl)-6-morpholino-1,3,5-triazin-2-yl)-N-(4-fluorophenyl)piperidin-4-amine], under setting [1], the inhibition at 0.5 µM lay within 50 to 70%. Consider `CN(C(=O)C(F)(F)F)c1nc(N2CCOCC2)nc(N2CCC(Oc3ccccc3)CC2)n1` [1A11, 2,2,2-trifluoro-N-methyl-N-(4-morpholino-6-(4-phenoxypiperidin-1-yl)-1,3,5-triazin-2-yl)acetamide], for which the inhibition at 0.5 µM under setting [1] lay within 50 to 70%.

Take `FC(F)(F)c1ccccc1NC1CCN(c2nc(N3CCOCC3)nc(-n3cnc4ccccc43)n2)CC1` [1B40, 1-(4-(1H-benzo[d]imidazol-1-yl)-6-morpholino-1,3,5-triazin-2-yl)-N-(2-(trifluoromethyl)phenyl)piperidin-4-amine]: the inhibition at 0.5 µM under setting [1] is 50 to 70%. On to `Cc1ccc(NC2CCN(c3nc(N4CCOCC4)nc(-n4cnc5cc(F)ccc54)n3)CC2)cc1` [1B33, 1-(4-(5-fluoro-1H-benzo[d]imidazol-1-yl)-6-morpholino-1,3,5-triazin-2-yl)-N-(p-tolyl)piperidin-4-amine], for which the inhibition at 0.5 µM under setting [1] was 50 to 70%. Turning to `Cc1ccc(OC2CCN(c3nc(N4CCOCC4)nc(N(C(=O)C(F)(F)F)c4ccccc4)n3)CC2)cc1` [1A8, 2,2,2-trifluoro-N-(4-morpholino-6-(4-(p-tolyloxy)piperidin-1-yl)-1,3,5-triazin-2-yl)-N-phenylacetamide], the inhibition at 0.5 µM is, setting by setting: under setting [1], more than 70%; under setting [2], more than 70%.

As to `FC(F)c1nc2ccccc2n1-c1nc(N2CCOCC2)nc(N2CCC(Oc3ccc(OC(F)(F)F)cc3)CC2)n1` [1B3, 4-(4-(2-(difluoromethyl)-1H-benzo[d]imidazol-1-yl)-6-(4-(4-(trifluoromethoxy)phenoxy)piperidin-1-yl)-1,3,5-triazin-2-yl)morpholine], under setting [1], the inhibition at 0.5 µM is 50 to 70%. Still for that read-out and setting: under `Fc1ccccc1OC1CCN(c2nc(N3CCOCC3)nc(-n3c(C(F)F)nc4ccccc43)n2)CC1` [1B9, 4-(4-(2-(difluoromethyl)-1H-benzo[d]imidazol-1-yl)-6-(4-(2-fluorophenoxy)piperidin-1-yl)-1,3,5-triazin-2-yl)morpholine] stands 50 to 70%. For the compound `Fc1ccc(N(c2ccc(C(F)(F)F)cc2)C2CCN(c3nc(N4CCOCC4)nc(-n4c(C(F)F)nc5ccccc54)n3)CC2)cc1` [1B43, 1-(4-(2-(difluoromethyl)-1H-benzo[d]imidazol-1-yl)-6-morpholino-1,3,5-triazin-2-yl)-N-(4-fluorophenyl)-N-(4-(trifluoromethyl)phenyl)piperidin-4-amine], the inhibition at 0.5 µM is, setting by setting: under setting [1], more than 70%; under setting [2], more than 70%.

As for `Cc1ccc(OC2CCN(c3nc(N4CCOCC4)nc(-n4cnc5cc(F)ccc54)n3)CC2)cc1` [1B13, 4-(4-(5-fluoro-1H-benzo[d]imidazol-1-yl)-6-(4-(p-tolyloxy)piperidin-1-yl)-1,3,5-triazin-2-yl)morpholine], the inhibition at 0.5 µM under setting [1] was in the range of 50 to 70%. As to `FC(F)(F)c1ccccc1OC1CCN(c2nc(N3CCOCC3)nc(N(c3ccccc3)c3ccccc3)n2)CC1` [1A19, 4-morpholino-N,N-diphenyl-6-(4-(2-(trifluoromethyl)phenoxy)piperidin-1-yl)-1,3,5-triazin-2-amine], the inhibition at 0.5 µM runs as follows: under setting [1], more than 70%; under setting [2], more than 70%. For `Fc1ccc(NC2CCN(c3nc(N4CCOCC4)nc(-n4cnc5ccccc54)n3)CC2)cc1` [1B37, 1-(4-(1H-benzo[d]imidazol-1-yl)-6-morpholino-1,3,5-triazin-2-yl)-N-(4-fluorophenyl)piperidin-4-amine], the inhibition at 0.5 µM under setting [1] is more than 70% and the inhibition at 0.5 µM under setting [2] was more than 70%. Take `FC(F)c1nc2ccccc2n1-c1nc(N2CCOCC2)nc(N2CCC(Oc3ccccc3C(F)(F)F)CC2)n1` [1B4, 4-(4-(2-(difluoromethyl)-1H-benzo[d]imidazol-1-yl)-6-(4-(2-(trifluoromethyl)phenoxy)piperidin-1-yl)-1,3,5-triazin-2-yl)morpholine]: the inhibition at 0.5 µM is more than 70% under setting [1] and more than 70% under setting [2]. Consider `FC(F)(F)c1ccccc1OC1CCN(c2nc(N3CCOCC3)nc(-n3cnc4ccccc43)n2)CC1` [1B20, 4-(4-(1H-benzo[d]imidazol-1-yl)-6-(4-(2-(trifluoromethyl)phenoxy)piperidin-1-yl)-1,3,5-triazin-2-yl)morpholine], for which the inhibition at 0.5 µM under setting [1] was in the range of 50 to 70%. Take `Fc1ccccc1NC1CCN(c2nc(N3CCOCC3)nc(-n3cnc4ccccc43)n2)CC1` [1B38, 1-(4-(1H-benzo[d]imidazol-1-yl)-6-morpholino-1,3,5-triazin-2-yl)-N-(2-fluorophenyl)piperidin-4-amine]: the inhibition at 0.5 µM under setting [1] was in the range of 50 to 70%. Regarding `Fc1ccc(N(c2ccc(F)cc2)C2CCN(c3nc(N4CCOCC4)nc(-n4c(C(F)F)nc5ccccc54)n3)CC2)cc1` [1B41, 1-(4-(2-(difluoromethyl)-1H-benzo[d]imidazol-1-yl)-6-morpholino-1,3,5-triazin-2-yl)-N,N-bis(4-fluorophenyl)piperidin-4-amine], the inhibition at 0.5 µM is, setting by setting: under setting [1], more than 70%; under setting [2], more than 70%.

As usually defined, the inhibition is the drop in the measured response relative to a control, in per cent.
